We go through one compound from patent US6159733A, “Method for photoinactivating malignant cells” (priority 1996, dated 2000).

Entries after “also recorded” stand apart in the source; their conditions may differ.

Data set [1] relates to SK-BR3. The note with it: 15 nM Pc 4, 5×10^6 cells/mL, 8 J/cm^2; cited from earlier work.
The subject of data set [2] is BFU-E. Particulars: 15 nM Pc 4, 5×10^6 cells/mL, 8 J/cm^2; cited from earlier work.
In data set [3] the test system is pluripotent stem cells (Ly-5.1 donor BM in Ly-5.2 mice). The data set is described as follows: Bone marrow transplantation and chimerism assay. The class given is in vivo. Particulars: for mice died two months after transplant: sub-lethally irradiated. From the text:
Animals. C57B1/6 (Ly-5.2) and B6SJ-cd45 ^b pep 3^b /BOY J (Ly-5.1), were obtained from The Jackson Laboratories (Bar Harbor, Me.) and were maintained in the animal facility of the New York Blood Center. After gamma-irradiation, the animals were housed in microisolator cages and provided with autoclaved food and autoclaved acidified water (pH=3) ad libitum. Preparation of bone marrow cell suspensions--Ly-5.1 mice were used as the source of donor BM. Mice (8-10 weeks old) were killed and the BM was harvested by flushing the femoral shafts with Hank's balanced salt solution (HBSS), pH 7.4. The cell suspensions were centrifuged, washed once and the cells were finally resuspended in HBSS--10% vol/vol fetal bovine serum (FBS, Gemini Bioproducts Inc., Calabasas, Calif.).
Photosensitization. Aliquots of a 1.87 mM Pc 4 (kindly provided by Dr. M. E. Kenney) stock solution in dimethyl sulfoxide were kept at -80° C. in autoclaved brown glass vials. Immediately prior to the photosensitization, Pc4 was thawed and diluted in dimethyl formamide to yield a 10 μM working solution. […] Pc 4 was used at 15 nM throughout the experiments.
BM and cell line samples, were incubated with 15 nM Pc 4 for two hours at 37° C. at cell concentrations of 1.5×10^7 cells/mL. Aliquots of 1.5 mL were transferred to 24-well plates; separate plates were used for each sample.
Photoinactivation. The light source used was a filtered xenon short arc lamp (Versa-Light, Model UV-R6G, Medic Lightech, Ltd., Haifa, Israel). It was used to deliver red light (λ 600-700 nm) to the sensitized cells. After a 20 minute warm up period of the instrument, the distance from the light source to the bottom of the 24-well plate was adjusted to obtain a fluence rate of 26.6 mW/cm^2, as measured with a radiometer (Model IL 1350, International Light, Newburyport, Mass.). Samples were placed under the light source and were stirred during the irradiations. Before and after the irradiations, samples were kept in the dark.
Bone marrow transplantation and chimerism assay. Two month old Ly-5.2 mice were used as recipients in the BM reconstitution assays. […] The irradiated recipient Ly-5.2 mice were divided into six groups. The mice in these groups received either HBSS, untreated control bone marrow, or Pc 4-sensitized BM that was photoirradiated with 0, 6, 12 or 18 J/cm^2, respectively. Each mouse received 250,000 donor BM cells.
Six months after transplantation, peripheral blood was obtained by tail-vein puncture and 40 μL samples were aliquoted into tubes that contained the following antibody cocktails. The first tube contained 4 μL of phycoerythrin (PE) conjugated anti-Ly-5.1 antibody (CD45.1, kind gift from Dr. JoseCarlos Segovia) and 1 μL of fluorescein (FITC) conjugated anti-B220 antibody (B cells; Pharmingen, San Diego, Calif.), the second tube contained 4 μL anti-Ly-5.1^PE and 1 μL of anti-CD3^FITC (T cells; Pharmingen), and the third tube contained 4 μL anti-Ly-5.1^PE and 1 μL of anti-Gr-1^FITC (granulocytes; Pharmingen). Following a 20 minute incubation at room temperature, 2 mL of FACS Lysing Solution (Becton Dickinson (BD), San Jose, Calif.) was added to each sample followed by gentle mixing. After 10 minutes the samples were centrifuged and the pellets were resuspended in 3 mL PBS. After centrifugation, the washed pellets were resuspended in 2% vol/vol formalin--PBS pH 7.4 and the samples were analyzed by flow cytometry within 3 hours after staining.

Data set [4] has as its system cell lines (ABE-8.1/2, BC3A, L1210, P815, WEHI-3). The data set is described as follows: Survival of cell lines after incubation with Pc 4. The class given is cell-based, murine. Particulars: Mus musculus, light or radiation study, read-out: surviving fractions of the cell lines after incubation. As for the experimental part: Cell lines and culture conditions. WEHI-3 (murine myelocytic leukemia), L1210 (murine lymphocytic leukemia) and P815 (murine mastocytoma) cells were grown in RPMI 1640 (GibcoBRL, Grand Island, N.Y.) supplemented with 10% FBS. BC3A (murine leukemia) cells were grown in RPMI 1640 supplemented with 10 μM β-mercaptoethanol and 10% FBS; ABE-8.1/2 (murine pre-B lymphoma) cells were grown in DMEM (GibcoBRL)--10 μM β-mercaptoethanol--10% FBS. All cell lines were obtained from the American Type Culture Collection (Rockville, Md.) and were cultured at 37° C. in a humidified 5% CO2 -incubator. Prior to incubation with Pc 4, the cell lines were centrifuged and resuspended in phosphate buffered saline (PBS)--10% FBS, pH 7.4.
Photosensitization. […]
Cell line samples were plated (in triplicate) in a semi-solid medium which consisted of DMEM--20% vol/vol serum (2/3 horse serum, 1/3 FBS)--3 mM glutamine--60 μM β-mercaptoethanol--0.3% wt/vol agar. The samples were incubated at 37° C. in a humidified 5% CO2 -incubator, and colonies consisting of more than 50 cells were counted after nine days.
Statistics. […] Data are expressed as mean values±standard error of the mean (SEM). […] The significance of the differences between experimental values was assessed by means of the Student's t-test.

Consider `CN(C)CCC[Si](C)(C)O[Si]1(O)n2c3c4ccccc4c2N=C2N=C(N=c4c5ccccc5c(n41)=NC1=NC(=N3)c3ccccc31)c1ccccc12` (stereo not shown) [Pc 4, hydroxysiloxy-dimethylpropyl-N-dimethyl silicon phthalocyanine], for which the “surviving fraction of human cells” value was < 10^-5 in data set [1] and 0.9 in data set [2]. Moreover, the “long term repopulating (LTR) ability / survival of the pluripotent stem cells” value in data set [3] (1.5×10^7 cells/mL, 18 J/cm^2) is reported as “not affected by the photoinactivation procedure; also recorded: no adverse affect”. In addition, in data set [3] (pilot, lethally irradiated (8.5 Gy), 70,000 untreated or treated donor BM cells), the mortality entry is recorded as “All mice that received 70,000 cells died within one month”. The “Ly-5.1 chimerism in peripheral blood granulocytes, T cells and B cells” value in data set [3] (pilot, lethally irradiated (8.5 Gy), 250,000 donor cells (untreated or treated 15 nM, 1.5×10^7 cells/mL, 18 J/cm2), after 4 months, most mice) is reported as > 70%. Further, the “difference in chimerism levels from untreated BM group” value in data set [3] (six months, 18 J/cm^2) was “not significant”. Further, the “chimerism level, granulocytes” value in data set [3] (six months, 250,000 BM cells, 18 J/cm^2, untreated BM 0.49±0.01 (p=0.42)) is on record as 0.38±0.08. Besides, in data set [3] (six months, 250,000 BM cells, 18 J/cm^2, untreated BM 0.50±0.12 (p=0.53)), the “chimerism level, B cells” value is listed as 0.39±0.11. Also, the “chimerism level, T cells” value in data set [3] (six months, 250,000 BM cells, 18 J/cm^2, untreated BM 0.72±0.07 (p=0.42)) worked out at 0.60±0.12. The “mice died two months after transplant” value was 1/6 in data set [3] (Pc 4, 0 J/cm^2); 1/6 in data set [3] (Pc 4, 6 J/cm^2); 1/6 in data set [3] (Pc 4, 18 J/cm^2). In addition, in data set [4], the viability at 0.015 µM was in the range of 73 to 100%.
